Laboratory results as given in patent US9308260B2, “Anticonvulsive pharmaceutical compositions” (INSERM (INSTITUT NATIONAL DE LA SANTE ET DE LA RECHERCHE …, priority 2007, dated 2016).
Entries after “also recorded” stand apart in the source; their conditions may differ.

Tests used:
[1] = Blood/plasma amino acid concentrations in vigabatrin-treated rats; format: in vivo, rat
Method: (§1) As described previously (Duboc et al., 2004), Wistar rats Rj Wi IOPS Han and Balb c mice were purchased from Janvier Breeding Center (Le Genest St Isle, France) at 7 weeks. VGB was dissolved in 0.9% NaCl at a concentration of 125 mg/ml. It was administered at 40 mg (125 mg/ml, 0.32 ml) by daily intraperitoneal injection for 45 or 65 days and at 3 mg (60 mg/ml, 0.05 ml) to mice for 29 days (daily dose of about 200 mg/kg in rats and 150 mg/kg in mice). Vitamin B6 (active form) was administered at a dose of 1 mM/kg (solution 154.46 mg/ml) whereas taurine was provided in the drinking water at 0.1 mol/l.
After 65 days of injection, rats were anesthetized for blood sampling. Anesthesia was induced as described above. Under anesthesia an indwelling catheter was placed in the carotid artery. This method allowed obtaining a single, large, good quality blood sample. A 1 mL blood sampling was taken for each rat in a heparinized blood sampler, immediately centrifuged and frozen at −80° C. Automated amino acid ion chromatography (Pasteur Cerba, France) was used for the quantitative determination of total and free amino acids in the samples.
As described previously (Duboc, A., et al. Vigabatrin, the GABA-transaminase inhibitor, damages cone photoreceptors in rats. Annals of neurology Vol. 55, 695-705 (2004).), Wistar rats Rj Wi IOPS Han or BALB/c mice were purchased from Janvier (Le Genest-St-Isle, France) at between six and seven weeks of age. VGB dissolved in 0.9% NaCl was administered at 40 mg (125 mg/ml, 0.32 ml) to rats by daily intraperitoneal injection for 45 or 65 days and at 3 mg (60 mg/ml, 0.05 ml) to mice for 29 days. These daily doses (rats: 200 mg/kg; mice: 150 mg/kg) are in-line with those described for the treatment of epilepsy in animals (Andre, V., Ferrandon, A., Marescaux, C. & Nehlig, A. Vigabatrin protects against hippocampal damage but is not antiepileptogenic in the lithium-pilocarpine model of temporal lobe epilepsy. Epilepsy research Vol. 47, 99-117 (2001)) or in humans (adult patients: 1-6 mg/kg; children: 50-75 mg/kg; or infants: 100-400 mg/kg) (Chiron, C., Dumas, C., Jambaque, I., Mumford, J. & Dulac, O. Randomized trial comparing vigabatrin and hydrocortisone in infantile spasms due to tuberous sclerosis. Epilepsy research Vol. 26, 389-395 (1997); Lux, A. L., et al. The United Kingdom Infantile Spasms Study comparing vigabatrin with prednisolone or tetracosactide at 14 days: a multicentre, randomised controlled trial. Lancet Vol. 364, 1773-1778 (2004); Aicardi, J., Mumford, J. P., Dumas, C. & Wood, S. Vigabatrin as initial therapy for infantile spasms: a European retrospective survey. Sabril IS Investigator and Peer Review Groups. Epilepsia Vol. 37, 638-642 (1996)). Taurine supplementation was given in drinking water at a concentration of 0.1M. […]

Wistar rats [2] = assay: Photopic electroretinogram (ERG) in vigabatrin-treated rats; format: in vivo, rat
Method: as §1
(§2) ERG were recorded as described previously after the last VGB injection (Duboc et al., 2004). Anesthesia was induced by an intramuscular injection of a solution containing ketamine (100 mg/kg) and xylazine (10 mg/kg). After 10 min adaptation to a 2.5 cdm^−2 light intensity, ten recordings were obtained with flash intensity of 10 cdsm^−2 at an interstimulus interval 30 s and subsequently averaged. These photopic ERG measurements were performed after 59 days in rats and 29 days in mice.
As described previously (Duboc, A., et al. Vigabatrin, the GABA-transaminase inhibitor, damages cone photoreceptors in rats. Annals of neurology Vol. 55, 695-705 (2004).), Wistar rats Rj Wi IOPS Han or BALB/c mice were purchased from Janvier (Le Genest-St-Isle, France) at between six and seven weeks of age. VGB dissolved in 0.9% NaCl was administered at 40 mg (125 mg/ml, 0.32 ml) to rats by daily intraperitoneal injection for 45 or 65 days and at 3 mg (60 mg/ml, 0.05 ml) to mice for 29 days. […]
Photopic ERGs were recorded after the last VGB injection, as described previously (Duboc, A., et al. Vigabatrin, the GABA-transaminase inhibitor, damages cone photoreceptors in rats. Annals of neurology Vol. 55, 695-705 (2004).). […]

BALB/c mice [3] = assay: Photopic electroretinogram (ERG) in vigabatrin-treated mice; format: in vivo, mouse; conditions: 29 days
Method: as §1, §2
(§3) As described previously (Duboc, A., et al. Vigabatrin, the GABA-transaminase inhibitor, damages cone photoreceptors in rats. Annals of neurology Vol. 55, 695-705 (2004).), Wistar rats Rj Wi IOPS Han or BALB/c mice were purchased from Janvier (Le Genest-St-Isle, France) at between six and seven weeks of age. VGB dissolved in 0.9% NaCl was administered at 40 mg (125 mg/ml, 0.32 ml) to rats by daily intraperitoneal injection for 45 or 65 days and at 3 mg (60 mg/ml, 0.05 ml) to mice for 29 days. These daily doses (rats: 200 mg/kg; mice: 150 mg/kg) are in-line with those described for the treatment of epilepsy in animals (Andre, V., Ferrandon, A., Marescaux, C. & Nehlig, A. Vigabatrin protects against hippocampal damage but is not antiepileptogenic in the lithium-pilocarpine model of temporal lobe epilepsy. Epilepsy research Vol. 47, 99-117 (2001)) or in humans (adult patients: 1-6 mg/kg; children: 50-75 mg/kg; or infants: 100-400 mg/kg) (Chiron, C., Dumas, C., Jambaque, I., Mumford, J. & Dulac, O. Randomized trial comparing vigabatrin and hydrocortisone in infantile spasms due to tuberous sclerosis. Epilepsy research Vol. 26, 389-395 (1997); Lux, A. L., et al. The United Kingdom Infantile Spasms Study comparing vigabatrin with prednisolone or tetracosactide at 14 days: a multicentre, randomised controlled trial. Lancet Vol. 364, 1773-1778 (2004); Aicardi, J., Mumford, J. P., Dumas, C. & Wood, S. Vigabatrin as initial therapy for infantile spasms: a European retrospective survey. Sabril IS Investigator and Peer Review Groups. Epilepsia Vol. 37, 638-642 (1996)). Taurine supplementation was given in drinking water at a concentration of 0.1M. Light intensity in the animal cages ranged between 125 and 130 lux for rats and between 70 and 85 lux for mice.
Photopic ERGs were recorded after the last VGB injection, as described previously (Duboc, A., et al. Vigabatrin, the GABA-transaminase inhibitor, damages cone photoreceptors in rats. Annals of neurology Vol. 55, 695-705 (2004).). Anesthesia was induced by intraperitoneal injection (0.8 to 1.2 ml/kg) of a solution containing ketamine (40 mg/ml) and xylazine (4 mg/ml Rompum). Animals were light-adapted for 10 minutes with a background light of 25 cdm^−2. Light flashes were then applied on this background light; the light intensity of the flash was 10 cdsm^−2 for the mouse experiments and for the rats maintained in darkness (FIGS. 2, 6) or 25 cdsm^−2 for other experiments (FIGS. 3, 5). Ten recordings were averaged with an interstimulus interval of 30 s.

Wistar rats [4] = assay: Retinal histology quantification in vigabatrin-treated rats; format: in vivo, rat
Method: as §3, with “mice. […]” for “mice.”
(§4) For quantification, vertical sections along the dorso-ventral axis were selected at the optic nerve. Following DAPI nuclear staining, the lengths of disorganised retinal areas were measured; GFAP immunostaining was used for detection and quantificationof retinal areas with reactive gliosis. […]

BALB/c mice [5] = assay: Retinal histology quantification in vigabatrin-treated mice; format: in vivo, mouse
Method: as §3
Eye cups were fixed overnight at 4° C. in 4% (wt/vol) paraformaldehyde in phosphate buffered saline (PBS; 0.01M, pH 7.4). The tissue was cryoprotected in successive solutions of PBS containing 10%, 20% and 30% sucrose at 4° C., oriented along the dorso-ventral axis and embedded in OCT (Labonord, Villeneuve d′Ascq, France). Retinal sections (8-10 μm thickness) were permeabilised for five minutes in PBS containing 0.1% Triton X-100 (Sigma, St. Louis, Mo.), rinsed, and incubated in PBS containing 1% bovine serum albumin (Eurobio, Les-Ulis, France), 0.1% Tween 20 (Sigma), and 0.1% sodium azide (Merck, Fontenay-Sous-Bois, France) for two hours at room temperature. The primary antibody added to the solution was incubated for two hours at room temperature. Polyclonal antibodies were directed against VGluT1 (1:2000, Chemicon), rabbit GFAP (1/400, Dako, USA) and mouse cone arrestin (Zhu, X., et al. Mouse cone arrestin expression pattern: light induced translocation in cone photoreceptors. Molecular vision Vol. 8, 462-471 (2002)) (Luminaire junior, LUMIj, 1:20,000). Monoclonal antibodies were directed against Goa (1:2000, Chemicon). Sections were rinsed and then incubated with the secondary antibody, goat anti-rabbit IgG or rabbit anti-mouse IgG conjugated to either Alexa TM594 or Alexa TM488 (1:500, Molecular Probes, Eugene, Oreg.) for two hours. […]
as §4

[6] = Plasma taurine levels in infants with infantile spasms receiving VGB therapy; format: in vivo, human; conditions: for Taurine level: measured
Method: Blood samples were collected in haemolysis tubes containing heparin (14 IU/ml) and centrifuged (2200 g, 15 min). Plasma amino-acid analysis was performed by ion-exchange chromatography with nihydrin detection using a JEOL AMINOTAC analyser.
We then evaluated whether these findings have any clinical relevance in patients with epilepsy. Plasma taurine levels were reviewed retrospectively in patients presenting infantile spasms, who had received VGB treatment for at least six months in Necker Hospitals for the last 3 years. Plasma amino-acid levels are routinely measured in patients with infantile spasms as part of their etiological work-up, particularly when brain RMI is negative. Data were available in six patients (Table 2 hereunder). […] For one of these two patients (patient 2), the taurine level was measured before starting a 15 month period of VGB therapy and this taurine level was normal. In patient 6, the taurine level was in the lower part of the normal range, but this measurement could have been overestimated by the delayed blood centrifugation. Thus, taurine levels seem to be decreased in VGB-treated epileptic infants.

[7] = vigabatrin alone versus control, listed as Vigabatrin
[8] = vigabatrin alone versus control, listed as vigabatrin
[9] = supplementation in addition to vigabatrin
[10] = VGB with taurine supplementation versus without, p<0.001

For `C=CC(N)CCC(=O)O` (stereo not drawn) [VGB, 4-amino-5-hexenoic acid], the “Decrease of taurine level versus control animals” value ([1]; VGB-treated rats, 65 days, p<0.05) was 67%, the “Reduction of methionine concentration versus control animals” value ([1]; VGB-treated rats, 65 days, significant) was 22% and the “Reduction of glutamic acid concentration versus control animals” value ([1]; VGB-treated rats, 65 days, statistically significant) was 56%. For the same compound, the “Photopic ERG amplitude” value (Wistar rats [2]; [7]) was “decrease”, the “Photopic ERG amplitude” value (Wistar rats [2]; [8]) was “decrease in amplitude” and the “Photopic ERG amplitude” value (BALB/c mice [3]; vigabatrin alone versus control) was “significantly lower photopic ERG amplitude than the control group”. The “Photopic ERG amplitude” value (BALB/c mice [3]; [7]) was “decrease”, the “Photopic ERG amplitude” value (BALB/c mice [3]; [8]) was “decrease in amplitude” and the GFAP immunostaining (Wistar rats [4]; VGB alone) was “increase in GFAP immunostaining”. For the same compound, the “Sprouting of bipolar cell dendrites” value (BALB/c mice [5]; VGB alone) was “observed”, the “Density of cone outer and inner segments” value (BALB/c mice [5]; VGB alone versus control, p<0.001) was “lower densities” and the Taurine level ([6]; patient 1, VGB, normal 70 ± 22, delay to plasma preparation <2 h) was “und*”. The Taurine level ([6]; patient 2, VGB, normal 70 ± 22, delay <2 h) was “und” and the “Taurine levels in VGB-treated epileptic infants (overall)” value ([6]; six patients, VGB for at least six months) was “decreased”.

In the case of `NCCS(=O)(=O)O` [taurine, 2-aminoethanesulfonic acid], the “Plasma levels of taurine” value ([1]; taurine 0.1M in drinking water of VGB-treated rats, n=7) is reported as “increased above those of control animals”, the “Photopic ERG amplitude” value (Wistar rats [2]; supplementation in addition to vigabatrin, versus vigabatrin alone) is reported as “decreased less than in vigabatrin alone; also recorded: greater in VGB-treated animals receiving taurine supplementation; also recorded: smaller decrease in photopic ERG amplitude” and the “Photopic ERG amplitude” value (BALB/c mice [3]; [9]) is reported as “no longer statistically significant; also recorded: smaller decrease in photopic ERG amplitude”. For the same compound, the “Photopic ERG amplitude” value (BALB/c mice [3]; supplementation in addition to vigabatrin, listed as Taurine) was “suppressed this decrease in photopic ERG amplitude”, the GFAP immunostaining (Wistar rats [4]; [10]) was “less extensive in animals receiving taurine supplementation” and the Cone segment density (Wistar rats [4]; VGB with taurine supplementation versus without, p<0.05) was “greater in the VGB-treated group with taurine supplementation”. For the same compound, the “Sprouting of bipolar cell dendrites” value (BALB/c mice [5]; VGB with taurine supplementation) was “completely suppressed”, the “Disorganisation of the outer nuclear layer (areas of retinal disorganisation)” value (BALB/c mice [5]; [10]) was “smaller areas of retinal disorganisation” and the “Density of cone outer and inner segments” value (BALB/c mice [5]; VGB with taurine supplementation, p<0.001) was “prevented this decrease in cone density”.

With `Cc1ncc(COP(=O)(O)O)c(C=O)c1O` [vitamin B6, pyridoxal-5′-phosphate] the “Photopic ERG amplitude” value (BALB/c mice [3]; [9]) was “reduced the decrease in photopic ERG amplitude; also recorded: smaller decrease in photopic ERG than with vigabatrin alone”.
